PMC10287555, “Camonsertib in DNA damage response-deficient advanced solid tumors: phase 1 trial results” (Nature Medicine, 2023)

Test: Treatment-related adverse events (TRAEs), TRESR
Format: in vivo, human
Protocol: Tolerability and safety of camonsertib was evaluated by assessment of AEs, TEAEs, serious adverse events (SAEs), DLTs, concomitant medications and procedures, physical examinations, vital sign measurements, clinical safety laboratory evaluations (hematology, chemistry and urinalysis), ECOG performance status scores and electrocardiograms.
All safety and efficacy endpoints were summarized with descriptive statistics. Safety data were summarized using the safety population, which consisted of all patients who received at least one dose of RP-3500. The DLT rate was based on the DLT-evaluable population, which included those patients in dose-escalation cohorts (M1a and M1b only) receiving ≥80% of planned doses of camonsertib, who completed all required safety evaluations and were observed through the end of cycle 1 or patients who experienced a DLT. Due to the different number of dose levels expected and the exploratory nature of the phase 1 study, anti-tumor activity parameters were primarily based on patients who received ≥1 dose of RP-3500 and had ≥1 post-baseline tumor assessment by RECIST 1.1 and/or GCIG CA-125 or PCWG3 PSA criteria, with an initial dose level of >100 mg d^−1 (dose level predicted to achieve efficacious exposure), as defined in the statistical analysis plan. Additional subgroups based on tumor types or genotypes of interest were based on this efficacy analysis set. […] Patients were, therefore, enrolled in the study and endpoints assessed regardless of sex, gender and race. No formal statistical tests were performed in this study. However, nominal P values (two-sided) were provided for the hypothesis-generating purpose of selected exploratory endpoints, without adjusting for multiplicity. A log-rank test was used in between-group comparisons for the time-to-event endpoints (PFS and DOT), and Fisher’s exact test was used in between-group comparisons for the binary endpoints (CBR, MR, etc.).

[1] = 3/4 schedule (n = 95), all grades
[2] = 5/2 schedule (n = 25), all grades

**Q.** Which “Patients who discontinued due to treatment-related grade 3 anemia” value (1/120, after four cycles) does the source give for `C[C@@H]1COCCN1c1cc([C@]2(O)C[C@H]3CC[C@@H](C2)O3)c2cnn(-c3cc[nH]n3)c2n1` [camonsertib] here?
**A.** 0.8%

**Q.** What about the “Anemia, all grades” value (3/4 schedule) of the same compound?
**A.** 64%

**Q.** What about the “Anemia, grade 3” value (3/4 schedule) of the same compound?
**A.** 26%

**Q.** And the “Fatigue TRAE, grade 3” value (3/4 schedule (n = 95))?
**A.** 2.1%

**Q.** What about the “Fatigue TRAE, overall” value (3/4 schedule (n = 95)) of the same compound?
**A.** 27.4%

**Q.** What about the “Neutropenia TRAE, grade 3” value (3/4 schedule (n = 95)) of the same compound?
**A.** 10.5%

**Q.** What about the “Neutropenia TRAE, grade 4” value (3/4 schedule (n = 95)) of the same compound?
**A.** 3.2%

**Q.** And the “Neutropenia TRAE, overall” value (3/4 schedule (n = 95))?
**A.** 26.3%

**Q.** And the “Thrombocytopenia TRAE, grade 3” value (3/4 schedule (n = 95))?
**A.** 6.3%

**Q.** What about the “Thrombocytopenia TRAE, grade 4” value (3/4 schedule (n = 95)) of the same compound?
**A.** 1.1%

**Q.** And the “Thrombocytopenia TRAE, overall” value (3/4 schedule (n = 95))?
**A.** 23.2%

**Q.** What about the “Any TRAE” value [1] of the same compound?
**A.** 82 (86.3) n (%)

**Q.** What about the “TRAE: Anemia” value [1] of the same compound?
**A.** 61 (64.2) n (%)

**Q.** And the “TRAE: Decreased appetite” value [1]?
**A.** 14 (14.7) n (%)

**Q.** What about the “TRAE: Diarrhea” value [1] of the same compound?
**A.** 13 (13.7) n (%)

**Q.** And the “TRAE: Dysgeusia” value [1]?
**A.** 5 (5.3) n (%)

**Q.** And the “TRAE: Dyspnea” value [1]?
**A.** 6 (6.3) n (%)

**Q.** What about the “TRAE: Fatigue” value [1] of the same compound?
**A.** 26 (27.4) n (%)

**Q.** And the “TRAE: Nausea” value [1]?
**A.** 23 (24.2) n (%)

**Q.** And the “TRAE: Neutrophil count decreased/neutropenia” value [1]?
**A.** 25 (26.3) n (%)

**Q.** What about the “TRAE: Platelet count decreased/thrombocytopenia” value [1] of the same compound?
**A.** 22 (23.2) n (%)

**Q.** And the “TRAE: Vomiting” value [1]?
**A.** 9 (9.5) n (%)

**Q.** What about the “TRAE: White blood cell count decreased” value [1] of the same compound?
**A.** 11 (11.6) n (%)

**Q.** And the “Any TRAE” value (3/4 schedule (n = 95), grade 3)?
**A.** 30 (31.6) n (%)

**Q.** And the “TRAE: Anemia” value (3/4 schedule (n = 95), grade 3)?
**A.** 25 (26.3) n (%)

**Q.** What about the “TRAE: Decreased appetite” value (3/4 schedule (n = 95), grade 3) of the same compound?
**A.** 0 n (%)

**Q.** And the “TRAE: Diarrhea” value (3/4 schedule (n = 95), grade 3)?
**A.** 0 n (%)

**Q.** And the “TRAE: Dysgeusia” value (3/4 schedule (n = 95), grade 3)?
**A.** 0 n (%)

**Q.** And the “TRAE: Dyspnea” value (3/4 schedule (n = 95), grade 3)?
**A.** 0 n (%)

**Q.** And the “TRAE: Fatigue” value (3/4 schedule (n = 95), grade 3)?
**A.** 2 (2.1) n (%)

**Q.** And the “TRAE: Nausea” value (3/4 schedule (n = 95), grade 3)?
**A.** 0 n (%)

**Q.** What about the “TRAE: Neutrophil count decreased/neutropenia” value (3/4 schedule (n = 95), grade 3) of the same compound?
**A.** 10 (10.5) n (%)

**Q.** What about the “TRAE: Platelet count decreased/thrombocytopenia” value (3/4 schedule (n = 95), grade 3) of the same compound?
**A.** 6 (6.3) n (%)

**Q.** What about the “TRAE: Vomiting” value (3/4 schedule (n = 95), grade 3) of the same compound?
**A.** 0 n (%)

**Q.** And the “TRAE: White blood cell count decreased” value (3/4 schedule (n = 95), grade 3)?
**A.** 4 (4.2) n (%)

**Q.** What about the “Any TRAE” value (3/4 schedule (n = 95), grade 4) of the same compound?
**A.** 4 (4.2) n (%)

**Q.** What about the “TRAE: Anemia” value (3/4 schedule (n = 95), grade 4) of the same compound?
**A.** 0 n (%)

**Q.** And the “TRAE: Decreased appetite” value (3/4 schedule (n = 95), grade 4)?
**A.** 0 n (%)

**Q.** And the “TRAE: Diarrhea” value (3/4 schedule (n = 95), grade 4)?
**A.** 0 n (%)

**Q.** And the “TRAE: Dysgeusia” value (3/4 schedule (n = 95), grade 4)?
**A.** 0 n (%)

**Q.** And the “TRAE: Dyspnea” value (3/4 schedule (n = 95), grade 4)?
**A.** 0 n (%)

**Q.** And the “TRAE: Fatigue” value (3/4 schedule (n = 95), grade 4)?
**A.** 0 n (%)

**Q.** And the “TRAE: Nausea” value (3/4 schedule (n = 95), grade 4)?
**A.** 0 n (%)

**Q.** What about the “TRAE: Neutrophil count decreased/neutropenia” value (3/4 schedule (n = 95), grade 4) of the same compound?
**A.** 3 (3.2) n (%)

**Q.** And the “TRAE: Platelet count decreased/thrombocytopenia” value (3/4 schedule (n = 95), grade 4)?
**A.** 1 (1.1) n (%)

**Q.** And the “TRAE: Vomiting” value (3/4 schedule (n = 95), grade 4)?
**A.** 0 n (%)

**Q.** And the “TRAE: White blood cell count decreased” value (3/4 schedule (n = 95), grade 4)?
**A.** 0 n (%)

**Q.** What about the “Nausea TRAE, overall” value (3/4 schedule (n = 95), all grade <3) of the same compound?
**A.** 24.2%

**Q.** And the “Anemia, all grades” value (5/2 schedule)?
**A.** 80%

**Q.** And the “Anemia, grade 3” value (5/2 schedule)?
**A.** 52%

**Q.** And the “Any TRAE” value [2]?
**A.** 22 (88.0) n (%)

**Q.** What about the “TRAE: Anemia” value [2] of the same compound?
**A.** 20 (80.0) n (%)

**Q.** What about the “TRAE: Decreased appetite” value [2] of the same compound?
**A.** 4 (16.0) n (%)

**Q.** And the “TRAE: Diarrhea” value [2]?
**A.** 0 n (%)

**Q.** What about the “TRAE: Dysgeusia” value [2] of the same compound?
**A.** 1 (4.0) n (%)

**Q.** And the “TRAE: Dyspnea” value [2]?
**A.** 5 (20.0) n (%)

**Q.** What about the “TRAE: Fatigue” value [2] of the same compound?
**A.** 7 (28.0) n (%)

**Q.** And the “TRAE: Nausea” value [2]?
**A.** 3 (12.0) n (%)

**Q.** And the “TRAE: Neutrophil count decreased/neutropenia” value [2]?
**A.** 6 (24.0) n (%)

**Q.** What about the “TRAE: Platelet count decreased/thrombocytopenia” value [2] of the same compound?
**A.** 7 (28.0) n (%)

**Q.** What about the “TRAE: Vomiting” value [2] of the same compound?
**A.** 3 (12.0) n (%)

**Q.** What about the “TRAE: White blood cell count decreased” value [2] of the same compound?
**A.** 1 (4.0) n (%)

**Q.** What about the “Any TRAE” value (5/2 schedule (n = 25), grade 3) of the same compound?
**A.** 14 (56.0) n (%)

**Q.** What about the “TRAE: Anemia” value (5/2 schedule (n = 25), grade 3) of the same compound?
**A.** 13 (52.0) n (%)

**Q.** And the “TRAE: Decreased appetite” value (5/2 schedule (n = 25), grade 3)?
**A.** 0 n (%)

**Q.** And the “TRAE: Diarrhea” value (5/2 schedule (n = 25), grade 3)?
**A.** 0 n (%)

**Q.** And the “TRAE: Dysgeusia” value (5/2 schedule (n = 25), grade 3)?
**A.** 0 n (%)

**Q.** What about the “TRAE: Dyspnea” value (5/2 schedule (n = 25), grade 3) of the same compound?
**A.** 0 n (%)

**Q.** And the “TRAE: Fatigue” value (5/2 schedule (n = 25), grade 3)?
**A.** 1 (4.0) n (%)

**Q.** What about the “TRAE: Nausea” value (5/2 schedule (n = 25), grade 3) of the same compound?
**A.** 0 n (%)

**Q.** And the “TRAE: Neutrophil count decreased/neutropenia” value (5/2 schedule (n = 25), grade 3)?
**A.** 3 (12.0) n (%)

**Q.** And the “TRAE: Platelet count decreased/thrombocytopenia” value (5/2 schedule (n = 25), grade 3)?
**A.** 2 (8.0) n (%)

**Q.** What about the “TRAE: Vomiting” value (5/2 schedule (n = 25), grade 3) of the same compound?
**A.** 0 n (%)

**Q.** What about the “TRAE: White blood cell count decreased” value (5/2 schedule (n = 25), grade 3) of the same compound?
**A.** 0 n (%)

**Q.** What about the “Any TRAE” value (5/2 schedule (n = 25), grade 4) of the same compound?
**A.** 1 (4.0) n (%)

**Q.** What about the “TRAE: Anemia” value (5/2 schedule (n = 25), grade 4) of the same compound?
**A.** 0 n (%)

**Q.** What about the “TRAE: Decreased appetite” value (5/2 schedule (n = 25), grade 4) of the same compound?
**A.** 0 n (%)

**Q.** What about the “TRAE: Diarrhea” value (5/2 schedule (n = 25), grade 4) of the same compound?
**A.** 0 n (%)

**Q.** What about the “TRAE: Dysgeusia” value (5/2 schedule (n = 25), grade 4) of the same compound?
**A.** 0 n (%)

**Q.** What about the “TRAE: Dyspnea” value (5/2 schedule (n = 25), grade 4) of the same compound?
**A.** 0 n (%)

**Q.** What about the “TRAE: Fatigue” value (5/2 schedule (n = 25), grade 4) of the same compound?
**A.** 0 n (%)

**Q.** And the “TRAE: Nausea” value (5/2 schedule (n = 25), grade 4)?
**A.** 0 n (%)

**Q.** What about the “TRAE: Neutrophil count decreased/neutropenia” value (5/2 schedule (n = 25), grade 4) of the same compound?
**A.** 1 (4.0) n (%)

**Q.** And the “TRAE: Platelet count decreased/thrombocytopenia” value (5/2 schedule (n = 25), grade 4)?
**A.** 1 (4.0) n (%)

**Q.** What about the “TRAE: Vomiting” value (5/2 schedule (n = 25), grade 4) of the same compound?
**A.** 0 n (%)

**Q.** And the “TRAE: White blood cell count decreased” value (5/2 schedule (n = 25), grade 4)?
**A.** 0 n (%)

**Q.** What about the Tolerability (120 patients) of the same compound?
**A.** well tolerated

**Q.** And the “Anemia TRAE of any grade” value (all dose levels/schedules)?
**A.** 67.5%

**Q.** What about the “Anemia, grade 3 (most common drug-related toxicity)” value (all patients) of the same compound?
**A.** 32%

**Q.** And the “Anemia, grade 4” value (both schedules)?
**A.** no grade 4 anemia was observed
